Test results: patent US6413912B2, “Azoline derivatives” (Syngenta Crop Protection, Inc., priority 1997, dated 2002)

Columns and labels:
Tetranychus urticae [1] = assay: Effect on Tetranychus urticae (Example B3); format: in vivo; conditions: bean plants, mixed population, sprayed with 400 ppm, 6 days at 25° C.
Method: Example B3: Effect on Tetranychus urticae
Young bean plants are inoculated with a mixed population of Tetranychus urticae and, one day later, are sprayed with an aqueous emulsion containing 400 ppm of active ingredient. The plants are incubated for 6 days at 25° C. and then evaluated. The percentage reduction of the population (% response) is determined by comparing the number of dead eggs, larvae, and adults on the treated plants with those on the untreated plants. The instantly claimed compounds show good efficacy against Tetranychus urticae in this test.

Tetranychus urticae [2] = assay: Ovicidal effect on Tetranychus urticae (Example B7); format: in vivo; conditions: bean plants colonized with eggs sprayed with 400 ppm, 6 days at 25° C.
Method: Example B7: Ovicidal effect on Tetranychus urticae
Young bean plants are inoculated with females of Tetranychus urticae, which are removed again after 24 hours. The plants colonized with eggs are sprayed with an aqueous emulsion containing 400 ppm of active ingredient. The plants are incubated for 6 days at 25° C. and then evaluated. The percentage reduction of the population (% response) is determined by comparing the number of dead eggs, larvae, and adults on the treated plants with those on the untreated plants.

[3] = tested on: Plutella xylostella caterpillars; assay: Effect on Plutella xylostella caterpillars (Example B5); format: in vivo; conditions: cabbage plants sprayed with 400 ppm, third stage caterpillars, three days later
Method: Example B5: Effect on Plutella xylostella caterpillars
(§1) Young cabbage plants are sprayed with an aqueous emulsion containing 400 ppm of active ingredient. After drying of the spray deposit, the cabbage plants are inoculated with 10 third stage caterpillars of Plutella xylostella and transferred to a plastic container. Three days later they are evaluated. The percentage reduction of the population (% response) is determined by comparing the number of dead caterpillars and the extent of feeding damage on the treated plants with those on the untreated plants.

[4] = tested on: Diabrotica balteata larvae; assay: Effect on Diabrotica balteata larvae (Example B2); format: in vivo; conditions: corn seedlings sprayed with 400 ppm, second stage larvae, six days later
Method: Example B2: Effect on Diabrotica balteata larvae
Corn seedlings are sprayed with an aqueous emulsion containing 400 ppm of active ingredient. After drying of the spray deposit, the corn seedlings are inoculated with 10 second stage larvae of Diabrotica balteata and transferred to a plastic container. Six days later they are evaluated. The percentage reduction of the population (% response) is determined by comparing the number of dead larvae on the treated plants with those on the untreated plants.

Heliothis virescens [5] = assay: Ovicidal effect on Heliothis virescens (Example B1); format: in vivo; conditions: eggs immersed in 400 ppm test solution, after 6 days, vs untreated controls
Method: Example B1: Ovicidal effect on Heliothis virescens
Eggs of Heliothis virescens laid on filter paper are immersed for a short time in an acetonic aqueous test solution containing 400 ppm of the active ingredient to be tested. After drying of the test solution, the eggs are incubated in Petri dishes. After 6 days, the percentage hatching rate of the eggs is compared with that for untreated controls (% reduction in hatching rate).

Dermanyssus gallinae = assay: In vitro effect on Dermanyssus gallinae (Example B10); conditions: ranking among test substances
Method: Example B10: In vitro effect on Dermanyssus gallinae
Ten engorged female mites of the genus Dermanyssus gallinae fixed on a plastic adhesive film are brought into contact with 50 μl of an aqueous suspension or emulsion of the test substance. The test is carried out with concentrations of 32, 10, 3.2, 1.0, 0.32 to 0.0001 ppm. After drying, the film is stuck onto a glass disc. This creates a kind of air bubble around each mite, the lower surface of which is formed by the glass disc and the upper surface by a bulging of the adhesive film. This bubble contains sufficient air for the mite to avoid suffocating. After 5 days, the effect of the test substance is evaluated with the aid of a stereomicroscope by assessing the effect on mortality, egg deposition, egg quality, hatching rate, pupation rate, and development of protonymphs according to the following 4 criteria:
1. if 9 to 10 mites are dead, this indicates a lethal effect;
3. if 2 or more mites survive and produce eggs, but no larvae hatch from these eggs and no protonymphs develop, this indicates a development-inhibiting effect;
4. if 2 or more mites survive and lay the usual number of normal eggs, from which larvae hatch and develop into protonymphs, this indicates no activity.

[6] = tested on: Heliothis virescens caterpillars; assay: Effect on Heliothis virescens caterpillars (Example B4); format: in vivo; conditions: soya plants sprayed with 400 ppm, first stage caterpillars, six days later
Method: Example B4: Effect on Heliothis virescens caterpillars
as §1, with “soya” for “cabbage”, “first” for “third”, “Heliothis virescens” for “Plutella xylostella”, “Six” for “Three”

Heliothis virescens [7] = assay: Ovocidal/larvicidal effect on Heliothis virescens (Example B6); format: in vivo; conditions: eggs on cotton sprayed with 400 ppm, after 8 days
Source text: Example B6: Ovocidal/larvicidal effect on Heliothis virescens
Eggs of Heliothis virescens laid on cotton are sprayed with an aqueous emulsion containing 400 ppm of active ingredient. After 8 days, the percentage hatching rate of the eggs and the survival rate of the caterpillars are compared with those for untreated controls (% reduction of population)

Boophilus microplus = assay: In vitro effect on Boophilus microplus (Example B9); conditions: ranking among test substances
Method: Example B9: In vitro effect on Boophilus microplus
Four test series each of 10 engorged female adults of Boophilus microplus are stuck to a plastic plate and covered for 1 hour with a wad of cottonwool soaked with an aqueous suspension or emulsion of the test substance. The test is carried out with concentrations of 100, 32, 10, 3.2, 1.0 and 0.32 ppm. The wad of cottonwool is then removed, and the ticks are incubated for 28 days for the eggs to be laid. The effect on Boophilus microplus is assessed according to the following 5 criteria:
1. Number of dead females (immobile with black discoloration) before egg deposition;
2. Number of ticks surviving for several days, but no eggs laid;
3. Number of cases in which eggs are laid, but nothing is hatched;
5. […] The compounds of formula (I) in this test show the effect described under point 4. […] Even at 1 ppm, a 60 to 90% suppression of the hatching rate is observed.
This test is carried out with both the BIARRA and the ULAM strain, and the results in both cases are identical.

[8] = tested on: Panonychus ulmi (resistant to organophosphates und carbaryl); assay: Effect on Panonychus ulmi (Example B8); format: in vivo; conditions: apple seedlings sprayed with 400 ppm, after 14 days
Method: Example B8: Effect on Panonychus ulmi (resistant to organophosphates und carbaryl)
Apple seedlings are inoculated with adult females of Panonychus ulmi. After seven days, the infected plants are sprayed with an aqueous emulsion containing 400 ppm of the test compound until they are dripping wet, and cultivated in the greenhouse. After 14 days, they are evaluated. The percentage reduction of the population (% response) is determined by comparing the number of dead mites on the treated plants with those on the untreated plants.

Fc1cccc(F)c1C1=NC(c2ccc(-c3ccc(C(F)(F)F)cc3)cc2)CO1 (stereo not shown) [Example H1-5, 2-(2,6-Difluorophenyl)-4-(4′-trifluoromethylbiphenyl-4-yl)-4,5-dihydro-oxazole]
percentage reduction of the population (% response) (Tetranychus urticae [1]): more than 80% | percentage reduction of the population (% response) (Tetranychus urticae [2]): more than 80% | percentage reduction of the population (% response) [3]: more than 80% | percentage reduction of the population (% response) [4]: more than 80% | % reduction in hatching rate (Heliothis virescens [5]): more than 80% | activity compared with the other test substances (Dermanyssus gallinae): most active test substance | percentage reduction of the population (% response) [6]: more than 80% | % reduction of population (hatching rate of eggs and survival rate of caterpillars) (Heliothis virescens [7]): more than 80% | activity compared with the other test substances (Boophilus microplus): most active test substance | percentage reduction of the population (% response) [8]: more than 80%
